Reference: US7514257B2, “Zinc finger transcription factor differentiation proteins” (ToolGen, Inc., priority 2001, dated 2009)

Legend:
human insulin gene [1] = test: Insulin gene expression in stably transfected 293 cells (DNA microarray); format: cell-based; details: stably transfected human 293 cells
From the text: We stably transfected nucleic acids encoding chimeric zinc finger proteins in human 293 cell lines, and analyzed transformed cells using DNA microarray experiments to characterize genes regulated by each chimeric zinc finger protein (see FIGS. 4, 5, and 9). We have identified a chimeric zinc finger protein (08_D04-p65) that increases the expression of human insulin gene more than 60 fold.
Nucleic acids encoding zinc finger proteins were stably introduced into FlpTRex-293 cell lines (Invitrogen) essentially as described in the manufacturer's protocols. Briefly, the HindIII-XhoI fragment from the pLFD-p65 or pLFD-Kid vectors was subcloned into pcDNA5/FRT/TO (Invitrogen Calif.). This fragment includes a sequence encoding the zinc finger proteins. Resulting plasmids were cotransfected into FlpTRex-293 cells with pOG44 (Invitrogen). Stable integrants that express ZFP-TFs upon doxycycline induction were obtained.
DNA microarrays containing 7458 human EST clones were obtained from Genomictree (Korea). FlpTRex-293 cells stably expressing ZFP-TFs were grown with (+Dox) or without Dox) 1 μg/ml Doxycycline for 48 hours. Total RNA was prepared from each sample. RNA from the −Dox sample was used as a reference (Cy3), and +Dox as the experimental sample (Cy5). […] Spots with sum of median less than 500 were colored red and not analyzed.

human insulin gene [2] = test: Insulin gene expression in transiently transfected HeLa cells; format: cell-based
From the text: To test whether 08_D04-p65 can induce insulin gene expression in different human cell lines, we transiently transfected a nucleic acid encoding 08_D04-p65 into HeLa cells. Expression of the nucleic acid in HeLa cells caused a 80 fold increase in expression of the insulin gene.
Nucleic acids encoding certain zinc finger proteins were also expressed in HeLa cells. pLFD-p65 containing 08-D04 ZFP was transiently transfected into HeLa cells using LIPOFECTAMINE™ 2000 (Invitrogen).

“08_D04-p65: ZFP RSHR-RDHT-VSSR with p65 activation domain (SEQ ID NO:6)” was tested, and the “increase in expression of human insulin gene” value (human insulin gene [1]) was “more than 60 fold” and the “increase in expression of the insulin gene” value (human insulin gene [2]) was 80 fold.
